Measurements from the SangsterLogP compilation.

Assay: method code SF-AS, from DOI: 10.1111/j.1399-3011.1986.tb03252.x
Details: pH 7.0

Row | SMILES | logD
1 | CC(=O)NC(C)(C)C(N)=O | -0.87
2 | CC(=O)NCC(N)=O | -1.68
3 | C=CCC(CC=C)(NC(C)=O)C(N)=O | 0.05
4 | CC(=O)NC(Cc1ccccc1)(Cc1ccccc1)C(N)=O | 2.09
5 | CCCC(CCC)(NC(C)=O)C(N)=O | 0.75

Second part, the molecule after the results:

Row | logD | SMILES
6 | -0.86 | C=CCC(NC(C)=O)C(N)=O (stereo not drawn)
7 | -1.41 | CC(=O)NC(C)C(N)=O (stereo not drawn)
8 | -0.45 | CCCC(NC(C)=O)C(N)=O (stereo not drawn)
